Earlier results in patent US20050232957A1, “Compositions and methods for moisturizing skin” (priority 2004, published 2005).

Settings: person, one month after starting treatment

aquagenic wrinkling of the palms (AWP): developed AWP
SMILES: CS(=O)(=O)c1ccc(C2=C(c3ccccc3)C(=O)OC2)cc1 [rofecoxib]
